According to patent EP1383793B1 (priority 2000, dated 2001):
Positions of bridges follow the written chain, without caps; N, C: chain ends. Residues, ends and D or L forms follow the SMILES beside them. *: point of attachment. Biotin = O=C1N[C@H]2[C@H](CS[C@H]2CCCCC(=O)*)N1

Experiments:
[1] = Precipitate in diluted peptide stock prior to adding to the fat cell assay; solubility under assay conditions; type: physicochemical; conditions: diluted stock prior to adding to assay
[2] = target: human IGF-1 receptor (HIGF-1R) (Homo sapiens, UniProt P08069); assay: 125I-IGF-1 competition binding assay on solubilised purified receptor
[3] = target: T1, IR (Homo sapiens, UniProt P06213); assay: Phage ELISA, competition of phage binding by soluble synthetic peptides, IR-coated wells; conditions: Insulin Receptor
T1 construct: composed of the extracellular domains of both the α and β chains of the natural receptor; made in house; background b13 names human embryonic kidney 293 cells for the Bass et al. construct
Experimental: (§1) Peptide Competition. […] Twenty microliters of the stock synthetic-peptide solution was added to Row A. A series of 20 µl into 100 µl dilutions were performed until Row G. Twenty microliters were discarded from Row G to maintain 100 µl per well. Row H was reserved as no peptide wells. […] The volume was maintained by the addition of 18 µl of the phage solution to Row A.
(§2) Phage ELISA. […] The wells were blocked with 200 µl of 2% (w/v) Carnation non-fat dry milk in PBS for 1.5 h at RT. Phage were added at 100 µl per well. Peptides were added as noted below and allowed to incubate at RT for 3 h. The plates were washed 3X with PBST. A solution of 1:3000 diluted HRP:Anti-M13 Conjugate at 100 µl per well of was added for 1 h. Following a repeat of the washing, 100 µl of ABTS was added for 15-30 min. The OD405 was measured using a SpectraMax 340 Microplate Spectrophotometer.
(§3) Peptide Competition. Peptide Competition Curves were produced during the phage ELISA across rows in triplicate. The stock synthetic peptide solution was added to Column 12 so that the total volume totaled 150 µl (additional phage solution was added when necessary). A serial dilution was made by transferring 50 µl from Column 12 into 100 µl in Column 11, 50 µl from Column 11 into 100 µl in Column 10, and continuing the serial dilution until Column 2. Fifty microliters were discarded from Column 2 to maintain 100 µl per well. Column 1 was reserved as no peptide wells.
(§4) A p53-like peptide that binds to MDM2 was used as a negative control.

[4] = target: T2, IGF-1R (Homo sapiens, UniProt P08069); assay: Phage ELISA, competition of phage binding by soluble synthetic peptides, IGF-1R-coated wells; conditions: IGF Receptor, H2 Phage
T2 construct: Soluble IGF-1R was obtained from R&D Systems; purchased R&D Systems 391-GR/CF
Experimental: as §1, §2, §3, §4

[5] = target: T1, IR; assay: Phage ELISA, binding of phage-displayed peptides to IR
Experimental: Amino acid sequences comprising the motif of Formulas 1 through 10. […] Fifty microliters of this solution was added to an appropriate number of wells in a 96-well microtiter plate (MaxiSorp plates, Nunc) and incubated overnight at 4°C. […] To isolate specific binders, each library was panned against a soluble form of the human IR. This IR is composed of the extracellular domains of both the α and β chains of the natural receptor, as well as the constant domain from immunoglobulin Fc, retaining the β-α-α-β structure described above. Because the IR is expressed in a eukaryotic system, disulfide bond formation and glycosylation patterns should mimic the wild-type receptor. The details of this recombinant protein construct are described in Bass et al. (1996). Phage ELISA. […] The wells were blocked with 200 µl of MPBS for 1.5 h at RT. […] Peptides were added as noted below and allowed to incubate at RT for 3 h. The plates were washed 3 times with PBST. A solution of 1:3000 diluted HRP:Anti-M13 conjugate at 100 µl per well of was added for 1 h. Following a repeat of the washing, 100 µl of ABTS was added for 15-30 min. […] Phage ELISA. […] Peptides were added as noted below and allowed to incubate at RT for 3 h. […] A solution of 1:3000 diluted HRP:Anti-M13 Conjugate at 100 µl per well of was added for 1 h. Following a repeat of the washing, 100 µl of ABTS was added for 15-30 min. The OD405 was measured using a SpectraMax 340 Microplate Spectrophotometer.

[6] = test system: adipocytes; assay: 3H-glucose uptake into adipocytes (fat cell assay, FFC); type: cell-based, Mouse; conditions: Subjective ranking; basal and sub maximal insulin; includes series A
[7] = target: T3, Insulin receptor (Homo sapiens, UniProt P06213); assay: Heterogeneous time-resolved fluorescence assay (TRFA) on insulin receptor; type: binding
T3 construct: composed of the extracellular domains of both the α and β chains of the natural receptor; made in house; background b13 names human embryonic kidney 293 cells for the Bass et al. construct
Experimental: In this assay, saEu forms a ternary complex with bP and IR (i.e., IR:bP:saEu complex). The TRFD assay format is well established, sensitive, and quantitative (Tompkins et al., 1993). The assay can use a single-chain antibody or a biotinylated peptide.
In these assays, soluble IR is coated on the surface of microtiter wells, blocked by a solution of 0.5% BSA and 2% non-fat milk in PBS, and then incubated with biotinylated peptide or rVab. Unbound bP is then washed away and saEu is added to complex with receptor-bound bP. Upon addition of the acidic enhancement solution, the bound europium is released as free Eu^3+ which rapidly forms a highly fluorescent and stable complex with components of the enhancement solution. The IR:bP bound saEu is then converted into its highly fluorescent state and detected by a detector such as Wallac Victor II (EG&G Wallac, Inc.)
• a. Heterogeneous Time-Resolved Fluorescence Assay. […] The plates were blocked with TBS containing 2% milk and 0.5% BSA for 1 h at RT followed by three TBS washes. […] After TBS wash, europium-labeled streptavidin at 1 µg/ml in assay buffer (100 mM Tris-HCl, pH 7.8; 150 mM NaCl; 0.5% BSA; 0.05% bovine Ig; 0.05% NaN3; 0.01% Tween-20) was added to the plates and incubated for 1 h. To test binding of rVab antibodies to IR, Eu-labeled rVab antibodies in assay buffer were added to the plates and incubated for 2 h to overnight. After incubation with Eu-labeled streptavidin (for peptide test) or europium-labeled rVabs, the plates were washed 5 times with Tris-buffered saline (pH 7.5) containing 0.1 % Tween-20 (TTBS) and tapped dry. Sixty microliters of EG&G Wallac enhancement solution (100 mM acetone-potassium hydrogen pthalate, pH 3.2; […] 2-naphtyltrifluoroacetate; […] tri(n-octyl)-phosphine oxide; 0.1 % Triton X-100) was added into each well, and the plates were placed onto a shaker for 20 min at RT. […] Homogeneous Time-Resolved Fluorescence Assay. […] For library screening, 20 µM of small organic molecules in 2 % DMSO are included in the mixture.

[8] = target: T2, IGF-1R; assay: Heterogeneous time-resolved fluorescence (Eu) competitive binding assay on IGF-1R
Experimental: The TRFD assay format is well established, sensitive, and quantitative (Tompkins et al., 1993).
In these assays, soluble IGF-1 receptor is coated on the surface of microtiter wells, blocked by PBS containing milk and BSA, and then incubated with biotinylated peptide or rVab. Unbound bP is then washed away and saEu is added to complex with receptor-bound bP. Upon addition of the acidic enhancement solution, the bound europium is released as free Eu^+3 which rapidly forms a highly fluorescent and stable complex with components of the enhancement solution.
The plates were blocked with PBS containing 2% non-fat milk and 0.05% BSA for 2 h at RT, followed by three PBS washes. […] The plates were then washed 5 times with TTBS (TBS buffer containing Tween-20; Wallac) and tapped dry.

[9] = target: T2, IGF-1R; assay: IGF-1R peptide assay, competition dissociation of 20E2; type: binding; conditions: peptides 100 µM, IGF-1 30 µM
Experimental: • a. Preparation of the Assay Mix. […] This mixture was allowed to pre-incubate. • b. 20 µl of Competitor and Buffer were added to a 96-well microtiter plate (Costar Cat. #3912). • c. […] After the original 99 repeat readings were taken, periodic readings were taken until equilibrium had been established. NOTE: Different conditions can be used for these experiments. For example, a 1.1X concentration of assay mix can be initially made. Then first add 10 µl of Competitor and Buffer to the microtiter plate followed by 90 µl of the Assay Mix. • f.

[10] = target: T2, IGF-1R; assay: Phage ELISA, binding of phage-displayed peptides to IGF-1R; conditions: 405 nm
Experimental: Figures 1A-10G. Amino acid sequences comprising the motif of Formulas 1 through 10. […] One hundred microliters of this solution was added to an appropriate number of wells in a 96-well microtiter plate (MaxiSorp plates, Nunc) and incubated overnight at 4°C. […] Subsequent steps are the same for pooled and clonal phage. […] Phage resuspended in MPBS were added to duplicate wells (100 µl/well) and incubated at RT for 1 h. […] Incubation was for 1 h at RT, followed by PBS washes as described. […] Phage ELISA. […] The wells were blocked with 200 µl of MPBS for 1.5 h at RT. Phage were added at 100 µl per well. Peptides were added as noted below and allowed to incubate at RT for 3 h. The plates were washed 3 times with PBST. A solution of 1:3000 diluted HRP:Anti-M13 conjugate at 100 µl per well of was added for 1 h. Following a repeat of the washing, 100 µl of ABTS was added for 15-30 min. […] Phage ELISA. […] Phage were added at 100 µl per well. Peptides were added as noted below and allowed to incubate at RT for 3 h. The plates were washed 3X with PBST. A solution of 1:3000 diluted HRP:Anti-M13 Conjugate at 100 µl per well of was added for 1 h. Following a repeat of the washing, 100 µl of ABTS was added for 15-30 min. The OD405 was measured using a SpectraMax 340 Microplate Spectrophotometer.

[11] = target: T4, purified insulin receptor (Homo sapiens, UniProt P06213); assay: Holoenzyme phosphorylation assay (IR autophosphorylation, Western blot); type: biochemical
T4 construct: host or cells: 'Wheat Germ Agglutinin Expression System' (so in the source)
Experimental: Alternatively, IR autophosphorylation was determined using a holoenzyme phosphorylation assay. […] The reaction was stopped by adding 50 µl of gel loading buffer containing β-mercaptoethanol (Bio-Rad Laboratories, Inc., Hercules, CA). The samples were run on 4-12% SDS-polyacrylamide gels. Western Blot analysis was performed by transferring the proteins onto nitrocellulose membrane. The membrane was blocked in PBS containing 3% milk overnight. The membrane was incubated with anti-phosphotyrosine 4G10 HRP labeled antibody (Upstate Biotechnology) for 2 h. Protein bands were visualized using SuperSignal West Dura Extended Duration Substrate Chemiluminescence Detection System (Pierce Chemical Co.).

[12] = target: T3, Insulin receptor; assay: BIAcore competition: IR pre-incubated with test substance, injected over immobilised insulin; type: binding; conditions: peptide about 40 µM, IR 450 nM; IR alone 128 RU
Experimental: Flowcell-1 was used for background binding to correct for any non-specific binding. […] The surface was regenerated with 25 mM NaOH. […] Thus, the system was validated for competition studies. […] The amino acid sequences referred to in the tables are identified in Figures 47 and 48, except the 447 and 2A9 sequences, which are shown below. TABLE 9: BIAcore Results-Fusion Proteins Compete for Binding to IR

T1 sequence (P06213 28-758 limits assumed): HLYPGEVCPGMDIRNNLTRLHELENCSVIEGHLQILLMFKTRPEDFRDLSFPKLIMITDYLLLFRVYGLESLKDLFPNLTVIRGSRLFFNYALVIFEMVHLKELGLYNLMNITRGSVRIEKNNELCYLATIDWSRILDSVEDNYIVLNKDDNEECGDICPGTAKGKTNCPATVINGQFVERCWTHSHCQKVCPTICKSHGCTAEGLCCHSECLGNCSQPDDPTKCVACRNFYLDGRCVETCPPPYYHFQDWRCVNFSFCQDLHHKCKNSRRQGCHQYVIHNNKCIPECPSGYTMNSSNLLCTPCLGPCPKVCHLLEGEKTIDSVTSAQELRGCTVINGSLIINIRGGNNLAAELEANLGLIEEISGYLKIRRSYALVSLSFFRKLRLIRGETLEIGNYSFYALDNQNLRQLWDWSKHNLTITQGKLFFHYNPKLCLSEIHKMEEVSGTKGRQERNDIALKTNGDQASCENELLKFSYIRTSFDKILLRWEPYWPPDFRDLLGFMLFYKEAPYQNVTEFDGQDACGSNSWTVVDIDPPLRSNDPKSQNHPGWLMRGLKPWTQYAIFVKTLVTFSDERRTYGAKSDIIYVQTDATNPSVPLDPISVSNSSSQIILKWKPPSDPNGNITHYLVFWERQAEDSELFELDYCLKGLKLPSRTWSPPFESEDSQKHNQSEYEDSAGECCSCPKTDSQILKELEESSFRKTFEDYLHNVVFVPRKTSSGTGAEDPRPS
T1 sequence (P06213 763-956 limits assumed): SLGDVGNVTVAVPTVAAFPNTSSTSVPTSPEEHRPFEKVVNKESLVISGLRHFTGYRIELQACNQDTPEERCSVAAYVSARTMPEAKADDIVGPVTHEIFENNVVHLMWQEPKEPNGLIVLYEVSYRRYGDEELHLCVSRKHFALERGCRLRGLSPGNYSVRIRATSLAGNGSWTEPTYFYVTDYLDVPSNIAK
T2 sequence (P08069 31-736 limits assumed): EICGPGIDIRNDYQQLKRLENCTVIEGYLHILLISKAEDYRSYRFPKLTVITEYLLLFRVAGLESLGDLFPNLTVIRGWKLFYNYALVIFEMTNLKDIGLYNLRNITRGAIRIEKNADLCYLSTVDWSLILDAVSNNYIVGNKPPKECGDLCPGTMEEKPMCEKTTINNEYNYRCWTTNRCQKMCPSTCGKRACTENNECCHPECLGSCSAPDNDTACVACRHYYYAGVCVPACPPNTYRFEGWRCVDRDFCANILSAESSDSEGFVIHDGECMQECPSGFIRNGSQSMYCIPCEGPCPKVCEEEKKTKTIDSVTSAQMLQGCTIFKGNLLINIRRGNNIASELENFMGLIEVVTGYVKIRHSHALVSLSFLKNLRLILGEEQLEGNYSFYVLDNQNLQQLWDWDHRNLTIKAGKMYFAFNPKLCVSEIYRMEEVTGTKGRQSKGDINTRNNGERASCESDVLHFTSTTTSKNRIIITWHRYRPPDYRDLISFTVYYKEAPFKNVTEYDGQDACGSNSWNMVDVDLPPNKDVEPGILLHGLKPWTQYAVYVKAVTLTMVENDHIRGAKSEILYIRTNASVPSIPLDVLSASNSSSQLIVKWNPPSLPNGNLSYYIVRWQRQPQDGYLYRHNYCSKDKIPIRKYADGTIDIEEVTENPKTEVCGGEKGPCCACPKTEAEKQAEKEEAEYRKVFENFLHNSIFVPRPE
T2 sequence (P08069 741-935 limits assumed): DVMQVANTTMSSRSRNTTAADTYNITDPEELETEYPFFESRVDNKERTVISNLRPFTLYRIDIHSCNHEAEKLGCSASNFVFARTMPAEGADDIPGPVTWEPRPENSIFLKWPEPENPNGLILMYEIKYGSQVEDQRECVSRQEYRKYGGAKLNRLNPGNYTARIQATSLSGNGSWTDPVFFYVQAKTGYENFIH
T3 sequence (P06213 28-758 limits assumed): as the sequence (P06213 28-758 limits assumed) above
T3 sequence (P06213 763-956 limits assumed): as the sequence (P06213 763-956 limits assumed) above
Sequence of human IGF-1 receptor (HIGF-1R) (P08069 31-736 limits assumed): as the sequence (P08069 31-736 limits assumed) above
Sequence of human IGF-1 receptor (HIGF-1R) (P08069 741-1367 limits assumed): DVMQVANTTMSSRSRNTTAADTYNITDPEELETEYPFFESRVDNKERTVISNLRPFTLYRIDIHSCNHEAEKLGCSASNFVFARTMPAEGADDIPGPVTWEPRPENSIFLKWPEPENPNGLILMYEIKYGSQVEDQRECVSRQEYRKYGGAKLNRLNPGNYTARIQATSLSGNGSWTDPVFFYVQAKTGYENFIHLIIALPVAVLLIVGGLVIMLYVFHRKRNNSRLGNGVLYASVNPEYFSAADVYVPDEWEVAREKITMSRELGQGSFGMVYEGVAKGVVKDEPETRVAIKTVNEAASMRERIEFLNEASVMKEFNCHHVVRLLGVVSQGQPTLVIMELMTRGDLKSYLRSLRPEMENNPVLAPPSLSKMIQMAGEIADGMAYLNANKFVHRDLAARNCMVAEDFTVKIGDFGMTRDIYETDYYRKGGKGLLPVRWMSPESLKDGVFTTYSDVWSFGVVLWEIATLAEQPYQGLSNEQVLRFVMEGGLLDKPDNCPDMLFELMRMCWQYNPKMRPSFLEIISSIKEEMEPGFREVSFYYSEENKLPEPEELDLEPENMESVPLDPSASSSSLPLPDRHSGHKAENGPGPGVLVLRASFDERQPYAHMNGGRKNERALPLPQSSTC
T4 sequence (P06213 28-758 limits assumed): as the sequence (P06213 28-758 limits assumed) above
T4 sequence (P06213 763-1382 limits assumed): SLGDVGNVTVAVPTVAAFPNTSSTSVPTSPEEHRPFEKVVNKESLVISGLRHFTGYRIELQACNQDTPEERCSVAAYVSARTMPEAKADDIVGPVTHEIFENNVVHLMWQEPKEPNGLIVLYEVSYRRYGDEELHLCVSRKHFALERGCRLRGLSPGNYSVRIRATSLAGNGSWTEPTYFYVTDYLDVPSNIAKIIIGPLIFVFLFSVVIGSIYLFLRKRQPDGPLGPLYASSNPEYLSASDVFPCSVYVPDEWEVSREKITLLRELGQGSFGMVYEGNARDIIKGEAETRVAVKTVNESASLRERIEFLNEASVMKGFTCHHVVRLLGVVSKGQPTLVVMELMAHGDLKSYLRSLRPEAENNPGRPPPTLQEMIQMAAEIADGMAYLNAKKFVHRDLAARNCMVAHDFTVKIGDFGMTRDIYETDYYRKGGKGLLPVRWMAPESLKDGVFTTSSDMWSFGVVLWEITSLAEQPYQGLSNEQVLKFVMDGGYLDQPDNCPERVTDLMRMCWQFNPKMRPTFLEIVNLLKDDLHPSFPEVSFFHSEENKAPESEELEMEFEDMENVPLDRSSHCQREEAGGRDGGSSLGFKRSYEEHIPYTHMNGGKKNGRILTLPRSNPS

Row | SMILES | Comments (precipitation) [1] | affinity for HIGF-1R [2] | Ratio ([2]; Kd HIGF1R / Kd HIR) | n (Hill plot) ([3]; 20D3 Phage) | n (Hill plot) ([3]; H2 Phage) | n (Hill plot) [4] | binding to IR when expressed as phage [5] | Resp. [6] | binding of biotinylated peptide to IR [7] | binding of biotinylated peptide to IGF-1 R [8] | effect on dissociation rate of 20E2 from IGF-1R [9] | Absorbance Values IR ([5]; 405 nm) | Absorbance Values sIGF-1R [10] | Autophosph. Blot [11] | Result (RUs) [12] [RUs]
1 | CC(C)[C@H](NC(=O)[C@H](Cc1ccccc1)NC(=O)[C@H](Cc1c[nH]c2ccccc12)NC(=O)[C@H](CC(=O)O)NC(=O)[C@H](Cc1ccc(O)cc1)NC(=O)[C@H](Cc1ccccc1)NC(=O)[C@H](CC(N)=O)NC(=O)[C@H](C)NC(=O)[C@H](C)NC(=O)[C@H](CC(=O)O)NC(=O)CNC(=O)[C@H](CS)NC(=O)[C@@H]1CCCN1C(=O)[C@H](CCCNC(=N)N)NC(=O)[C@H](C)NC(=O)[C@H](Cc1c[nH]c2ccccc12)NC(=O)[C@H](CS)NC(=O)[C@H](CC(=O)O)NC(=O)[C@H](CCCCN)NC(=O)[C@H](Cc1ccc(O)cc1)NC(=O)[C@@H](N)CC(=O)O)C(=O)N[C@@H](CCC(N)=O)C(=O)N[C@@H](CCC(N)=O)C(=O)N[C@@H](C)C(=O)N[C@@H](CO)C(=O)N[C@@H](CCCCN)C(=O)N[C@@H](CCCCNC(=O)CCCC[C@@H]1SC[C@@H]2NC(=O)N[C@@H]21)C(N)=O [Clone C1] | Precipitates | high affinity | 0.1 | 0.83 | 0.46 | 0.96 | do not have detectable binding | 0 | micromolar range | nM range | – | – | – | – | –
2 | CC(C)C[C@H](NC(=O)[C@H](Cc1c[nH]c2ccccc12)NC(=O)[C@@H](N)CCCCN)C(=O)N[C@@H](CC(=O)O)C(=O)N[C@@H](CCC(N)=O)C(=O)N[C@@H](CCC(=O)O)C(=O)N[C@@H](Cc1c[nH]c2ccccc12)C(=O)N[C@@H](C)C(=O)N[C@@H](Cc1c[nH]c2ccccc12)C(=O)N[C@H](C(=O)N[C@@H](CCC(N)=O)C(=O)N[C@H]1CSSC[C@@H](C(=O)N2CCC[C@H]2C(=O)N[C@@H](CO)C(=O)N[C@@H](CCCCN)C(=O)N[C@@H](CCCCNC(=O)CCCC[C@@H]2SC[C@@H]3NC(=O)N[C@@H]32)C(N)=O)NC(=O)CNC(=O)[C@H](CCCNC(=N)N)NC(=O)CNC(=O)[C@H](Cc2ccc(O)cc2)NC(=O)[C@H](C(C)C)NC(=O)[C@H](CCC(=O)O)NC1=O)C(C)C [Clone D8] (H-KWLDQEWAWVQCEVYGRGCPSKK(Biotin)-NH2; disulfide 12-19 (inferred); N-terminus assumed) | Precipitates | – | – | – | – | – | – | -1 | – | – | much slower dissociation rate | 1.42 | 2.19 | 0 | 41.6
